Publication PMC8145938, “Triphenilphosphonium Analogs of Chloramphenicol as Dual-Acting Antimicrobial and Antiproliferating Agents” (Antibiotics, 2021)

Tests used:
Format in all cases: cell-based
[1] = tested on: MDA-MB-231 and BT-549 TNBC-sensitive and chemoresistant cells; assay: cancer cell proliferation / viability assay (MTT); conditions: 3 days treatment
From the text: We recently provided in vivo [67] and in vitro [68] evidence that certain bactericidal antibiotics suppress tumor growth by inducing mitochondrial dysfunction. […] These cells differ from the corresponding parental cells and display a different response to the same microenvironmental stimuli, allowing them to reduce their proliferating rate and survive chemotherapeutic treatment. Here, we tested the abovementioned CAM-TPP derivatives on chemoresistant triple negative breast cancer (TNBC) cell models, as well as on corresponding CSC-like spheroid cells. We created several relevant models based on TNBC cell lines, particularly MDA-MB-231 and BT-549, to determine their resistance to cyclophosphamide. To create CSC-like cells, parental cells were resuspended in nonadherent conditions to form tumorspheres.
The MDA-MB-231 (RRID: CVCL_0062) and BT-549 (RRID: CVCL_1092) cell lines were purchased from ATCC and cultured in DMEM/F12 (Gibco, Life Technologies, 31330-038) supplemented with 10% FBS, 1% Pen-Strep, 1% Sodium Pyruvate, and 1% L-glutamine. Chemoresistant cell lines were established with continuous treatment for 6 months with the anticancer therapeutic agent, cyclophosphamide (Rcyclo), as previously described. These cell lines were authenticated using short tandem repeat (STR) profiling within the last three years. […] The relative numbers of tumourspheres per well were counted manually. […]
The survival assay was performed essentially as described earlier. […] The absorbance was measured at 570 nm in Bio Spec 1601, Shimadzu spectrometer. […] The results were expressed as the means ± SEM. The data were analyzed using the GraphPad Prism 7 PRIZM computer software under the license of the Statistical Department (Vall’ d Hebron Hospital, Barcelona, Spain).

[2] = tested on: CSC-like TNBC cells (MDA-MB-231 and BT-549, sensitive and chemoresistant); assay: tumoursphere formation and viability of CSC-like cells; conditions: for survival of CSCs: CSCs from parental and resistant TNBC cell lines; for spheroid formation: non-adherent conditions, 5 days
From the text: Several TPP-containing compounds have been proposed for the elimination of CSCs by the Lisanti group. In the current work, we studied the effect of CAM-TPP derivatives on CSC-like TNBC cell models.
The MDA-MB-231 (RRID: CVCL_0062) and BT-549 (RRID: CVCL_1092) cell lines were purchased from ATCC and cultured in DMEM/F12 (Gibco, Life Technologies, 31330-038) supplemented with 10% FBS, 1% Pen-Strep, 1% Sodium Pyruvate, and 1% L-glutamine. Chemoresistant cell lines were established with continuous treatment for 6 months with the anticancer therapeutic agent, cyclophosphamide (Rcyclo), as previously described. These cell lines were authenticated using short tandem repeat (STR) profiling within the last three years. To obtain CSC-like cells, a single cell suspension was prepared using enzymatic disaggregation (1× Trypsin-EDTA, Gibco, 25300062), and the cells were plated at a density of 10.000–12.000 cells per ml in a Cancer Stem Cell medium (C-28070, PromoCell, Heidelberg, Germany) in poly-2-hydroxyethyl methacrylate (Poly-HEMA, Santa Cruz Biotechnology, Dallas, TX, USA, sc-253284)-coated plates. […] The cells were […] with corresponding compounds or DMSO (control), followed by the abovementioned procedure of tumoursphere formation. The relative numbers of tumourspheres per well were counted manually. The experiments were performed independently at least 2 times, with several replicates.
(§1) The survival assay was performed essentially as described earlier. In short, cells were seeded into a 96-well plate, followed by treatment with increasing concentrations of the corresponding CAM-TPP derivatives for 3 days. 3-(4,5-dimethylthiazol-2-yl)-2,5-diphenyltetrazolium bromide (0.5 mg/mL MTT; Sigma-Aldrich) dissolved in media was added to each well. Following incubation for 2 h, the supernatant was carefully removed from the wells, and 100 µL of a DMSO:ethanol mix (1:1) was added to each well, followed by shaking for 10 min. The absorbance was measured at 570 nm in Bio Spec 1601, Shimadzu spectrometer. The OD570 of the DMSO solution in each well was considered to be proportional to the number of cells. The OD570 of the control (treatment without supplement) was considered to be 100%. The results were expressed as the means ± SEM. The data were analyzed using the GraphPad Prism 7 PRIZM computer software under the license of the Statistical Department (Vall’ d Hebron Hospital, Barcelona, Spain).

[3] = tested on: Escherichia coli C600recA naI; assay: MIC determination, CHL resistant E. coli strains; conditions: C600RECANAI
From the text: (§2) Standard laboratory strains of Bacillus subtilis subs. subtilis Cohn 1872, stains BR151, and 168, Staphylococcus aureus subsp. aureus Rosenbach 1884 strains JCM 2151 and entry MC#144 (from the Microorganisms Collection of the Moscow State University), Listeria monocytogenes Pirie 1940, Mycobacterium smegmatis Lehmann and Neumann 1899 (MC#377), and Escherichia coli Castellani and Chalmers 1919, strain JW5503 (with the deletion of tolC gene), which are resistant to the chloramphenicol strains, J53rif, C600rif/pIB55-1, C600rif/pIP162-1, and C600recA naI, were used.
(§3) The MICs for CAM-Cn-TPP and Cn-TPP were determined by Mueller-Hinton broth microdilution, as recommended by CLSI in the Methods for Dilution Antimicrobial Susceptibility Tests for Bacteria that Grow Aerobically, Approved Standard, 9th ed., CLSI document M07-A9, using in-house-prepared panels. The compounds were diluted in a 96-well microtiter plate to final concentrations ranging from 0.5 to 360 μM in a 250-µL aliquot of the bacterial suspension, followed by incubation at 37 °C or 30 °C for 18 h. […] The bacterial growth was observed visually alongside OD measurements. The experiments were carried out in triplicate.

[4] = tested on: Escherichia coli C600rif/pIB55-1; assay: MIC determination, CHL resistant E. coli strains
From the text: as §2, §3

[5] = tested on: Escherichia coli C600rif/pIP162-1; assay: MIC determination, CHL resistant E. coli strains
From the text: as §2, §3

Escherichia coli J53rif = assay: MIC determination, CHL resistant E. coli strains
From the text: as §2, §3

normal human fibroblasts = assay: cell viability of normal cells; conditions: submicromolar concentrations, preliminary results
Method: We also compared the effects of the obtained compounds on the suppression of normal cell growth.
as §1

**Q.** What does the source list for `O=C(CCCCCCCCCC[P+](c1ccccc1)(c1ccccc1)c1ccccc1)NCCCC(=O)N[C@H](CO)[C@H](O)c1ccc([N+](=O)[O-])cc1` [CAM-C14-TPP, N-[(1R,2R)-1,3-dihydroxy-1-(4-nitrophenyl)propan-2-yl]-4-(triphenyl)phosphoniumundecanamidobutamide bromide]?
**A.** effect on proliferation of TNBC cell lines [1]: significantly reduced the proliferation of TNBC cell lines; survival of CSCs [2]: reduced the survival of CSCs formed from parental and resistant TNBC cell lines; spheroid formation [2]: significant decrease in spheroid formation

**Q.** How did the MIC [3] turn out when `O=C(N[C@H](CO)[C@H](O)c1ccc([N+](=O)[O-])cc1)C(Cl)Cl` [CHL, chloramphenicol] was run?
**A.** > 396 µM

**Q.** What about the MIC [4] of the same molecule?
**A.** > 396 µM

**Q.** And the MIC [5]?
**A.** > 396 µM

**Q.** What about the MIC (Escherichia coli J53rif) of the same molecule?
**A.** > 396 µM

**Q.** For `O=C(CCCCCCCCCC[P+](c1ccccc1)(c1ccccc1)c1ccccc1)N[C@H](CO)[C@H](O)c1ccc([N+](=O)[O-])cc1` [CAM-C10-TPP, (N-{[(1R,2R)-1,3-dihydroxy-1-(4-nitrophenyl)propan-2-yl]amino}-11-oxoundecyl)(triphenyl)phosphonium bromide], which MIC [3] is on record?
**A.** 107 µM

**Q.** What about the MIC [4] of the same molecule?
**A.** 90 µM

**Q.** What about the MIC [5] of the same molecule?
**A.** > 199 µM

**Q.** What about the MIC (Escherichia coli J53rif) of the same molecule?
**A.** 110 µM

**Q.** What about the “effect on proliferation of TNBC cell lines” value [1] of the same molecule?
**A.** significantly reduced the proliferation of TNBC cell lines

**Q.** What about the “survival of CSCs” value [2] of the same molecule?
**A.** reduced the survival of CSCs formed from parental and resistant TNBC cell lines

**Q.** What about the spheroid formation [2] of the same molecule?
**A.** significant decrease in spheroid formation

**Q.** And the “effect on normal cell growth compared with cancer cells” value (normal human fibroblasts)?
**A.** less affected by submicromolar concentrations of CAM-TPP derivatives than cancer cells
